Measured values taken from patent US20250326718A1, “4-PHENYL-2-PYRROLIDINONES AND METHODS OF USING THEREOF” (North Carolina State University, priority 2022, published 2025).
Values after ≈ are worked out from the molar mass of the structure shown. Counter-ions that a name gives are not always drawn. Like-named read-outs stand apart in the source and are kept apart here.

Assays:
[1] = tested on: MRSA (ATCC 33591); test: Broth microdilution MIC, MRSA ATCC 33591; type: cell-based; conditions: Staphylococcus aureus; Table 1, Compounds 1-15; preliminary data, modified non-standard conditions (pH 9), solubility-limited
Outline: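 CLSI M07-A8 broth microdilution; MRSA ATCC 33591 grown 6-8 h in MHB, inoculated at 5×10^5 CFU/mL. Compound added from 10 mM DMSO stock, typical top concentration 128 μg/mL; stationary incubation at 37° C. MIC taken as lowest concentration with no visible growth; assay conditions modified to aid solubility.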

[2] = tested on: MRSA (ATCC BAA 44) biofilm; test: Inhibition of MRSA biofilm formation (crystal violet); type: cell-based; conditions: Staphylococcus aureus, 24 h, Table 1
Experimental: General information—Biological Assays. Methicillin-resistant and methicillin sensitive Staphylococcus aureus (MRSA and MSSA respectively) strains were obtained from the Laboratory of Professor Christian Melander (NCSU) (ATCC BAA 44 and 33591) and Dr. Jessica Gilbertie (ATCC 25923). Bacteria were kept in frozen stocks on glycerol at −80° C. until use. Bacteria was streaked onto tryptic-soy agar for colony isolation. Mueller-Hinton broth (MHB, 211443-BD), tryptic soy broth (TSB, Remel: R455052) and D-glucose (CAS: 492-62-6) were purchased from Fisher Scientific. Tryptic soy agar (TSA, cat. #22091) and Linezolid (cat. #P70014) were purchased from Sigma-Aldrich. Bacteria for biofilm inhibition were cultured overnight in TSB-G (tryptic soy broth with 0.5% glucose supplement) in 96 well plates. All assays were run in duplicate and repeated at least two separate times for MIC assays and at least three separate times for biofilm inhibition. All compounds were dissolved in molecular biology grade DMSO as 10 mM stock solutions. Optical densities were measured using a Thermo Scientific Genesys 20 spectrophotometer. Data for biofilm inhibition were collected using a BioTek ELx808 Microplate Reader. All graphs were generated and analyzed using GraphPad Prism 7.
Determination of the inhibitory effect of test compounds on MRSA biofilm formation. Inhibition assays were performed using a procedure adapted from S. A. Rogers and C. Melander, Angew. Chem. Int. Ed., 2008, 47, 5229-5231, which is hereby incorporated herein by reference. Briefly, the inhibition assays were performed by subculturing an overnight culture of MRSA (ATCC BAA 44) to an OD600 of 0.01 in TSB-G (tryptic soy broth with a 0.5% glucose supplement). Stock solutions of predetermined concentrations of the test compound were then made using the inoculated TSB-G. These stock solutions were aliquoted (100 μL) into the wells of the 96-well microtiter plate. Sample plates were sealed then incubated for 24 h at 37° C. After incubation, the medium was discarded from the wells and the plates were washed 2× with PBS. Prior to staining, plates were left to dry at ambient temperature for 2-3 h. Plates were then stained with 0.1% solution of crystal violet (CV, 125 μL) and then incubated at ambient temperature for 30 min. Plates were washed with PBS again and the remaining stain was solubilized with 99% ethanol (200 μL). A sample of solubilized CV stain (110 μL) from each well was transferred to the corresponding wells of a polystyrene microtiter dish. Biofilm biomass was quantified by measuring the OD540 of each well and inhibition was calculated as a percentage of the control (no compound); a negative control lane wherein no biofilm was formed served as a background and was subtracted out. Percent inhibition was then plotted against concentration in Prism 7. Each of the four experiments were plotted separately and S15 analyzed by a normalized nonlinear regression. The graphs on the following pages were generated from an average of the total data set. Biofilm data represent four separate experiments, with each experiment performed in duplicate (average of 8 data points for each concentration tested, unless otherwise noted).

[3] = tested on: MSSA (ATCC 25923); test: Broth microdilution MIC, MSSA ATCC 25923; type: cell-based; conditions: Staphylococcus aureus, read-out: MIC value against MSSA ATCC 25923
[4] = tested on: MSSA (ATCC 25923) biofilms; test: Minimum Biofilm Eradication Concentration (MBEC), Calgary Biofilm Device; type: cell-based, Staphylococcus aureus; conditions: antibiotic alone
Experimental: MBEC concentrations were measured using a procedure adapted from H. Ceri, et al., J Clin. Microbiol., 1999, 1771-1776, which is hereby incorporated herein by reference. Briefly, biofilm eradication experiments were performed using MSSA (ATCC 25923) and the Calgary Biofilm Device (CBD) to determine MBEC values for various compounds of interest (Innovotech, product code: 19111). The Calgary device is a 96-well plate with a lid containing 96 pegs that sit in the media contained in the bottom well. Biofilm are established on the individual pegs. The established biofilm (contained on the individual peg) can then be transferred to a new base well for MBEC testing. For the MBEC assay, an overnight culture of MSSA (ATCC 25923) was adjusted to 0.5 McFarland in MHB-G. The CBD was inoculated with 100 μL of the 0.5 McFarland and incubated at 37° C. for 24 hours to establish biofilms. The CBD lid containing the established biofilms on individual pegs was removed, washed 3× with PBS and transferred to another 96-well plate containing serial dilutions of the test compounds (the “challenge plate”) and incubated at 37° C. for 24 hours. […] The plate was then sonicated for sonicated for 30 minutes to disperse biofilms on S16 the pegs into the fresh MHB in the base well. After sonication, the plate was incubated for 24 hours at 37° C.

Row | SMILES | MIC [1] [mg/L] | inhibition at 5 µM [2] [%] | inhibition at 40 µM [2] [%] | MIC ([3]; antibiotic alone) [mg/L] | MBEC value against MSSA ATCC 25923 [4] [pug/mL] | MIC [3] [mg/L]
1 | CCC1C(c2ccc(C(F)(F)F)cc2)=C(O)C(=O)N1c1ccccc1 (stereo not shown) [Compound 1, 5-Ethyl-3-hydroxy-1-phenyl-4-(4-(trifluoromethyl)phenyl)-1,5-dihydro-2H-pyrrol-2-one] | 16 (≈ 46.1 µM) | 5 | 85 |  |  | 
2 | CC1C(c2ccc(C(F)(F)F)cc2)=C(O)C(=O)N1c1ccccc1 (stereo not shown) [Compound 2, 3-Hydroxy-5-methyl-1-phenyl-4-(4-(trifluoromethyl)phenyl)-1,5-dihydro-2H-pyrrol-2-one] | 32 (≈ 96 µM) | -26 | 72 |  |  | 
3 | CCC1C(c2ccc(C(F)(F)F)cc2)=C(O)C(=O)N1c1ccc(Br)cc1 (stereo not shown) [Compound 3, 1-(4-Bromophenyl)-5-ethyl-3-hydroxy-4-(4-(trifluoromethyl)phenyl)-1,5-dihydro-2H-pyrrol-2-one] | 32 (≈ 75.1 µM) | 34 | 72 |  |  | 
4 | CCC1C(c2ccc(C(F)(F)F)cc2)=C(O)C(=O)N1c1ccc(F)cc1 (stereo not shown) [Compound 4, 5-Ethyl-1-(4-fluorophenyl)-3-hydroxy-4-(4-(trifluoromethyl)phenyl)-1,5-dihydro-2H-pyrrol-2-one] | 16 (≈ 43.8 µM) | 22 | 81 |  |  | 
5 | CCC1C(c2ccc(C(F)(F)F)cc2)=C(O)C(=O)N1c1ccc(OC)c(OC)c1 (stereo not shown) [Compound 5, 1-(3,4-Dimethoxyphenyl)-5-ethyl-3-hydroxy-4-(4-(trifluoromethyl)phenyl)-1,5-dihydro-2H-pyrrol-2-one] | > 128 | 17 | 70 |  |  | 
6 | CCC1C(c2ccc(C(F)(F)F)cc2)=C(O)C(=O)N1c1cccnc1 (stereo not shown) [Compound 6, 5-Ethyl-3-hydroxy-1-(pyridin-3-yl)-4-(4-(trifluoromethyl)phenyl)-1,5-dihydro-2H-pyrrol-2-one] | > 128 | 4 | 31 |  |  | 
7 | CCC1C(c2ccc(C(F)(F)F)cc2)=C(O)C(=O)N1Cc1cccs1 (stereo not shown) [Compound 7, 5-Ethyl-3-hydroxy-1-(thiophen-2-ylmethyl)-4-(4-(trifluoromethyl)phenyl)-1,5-dihydro-2H-pyrrol-2-one] | > 128 | 54 | 79 |  |  | 
8 | CCC1C(c2ccc(C(F)(F)F)cc2)=C(O)C(=O)N1CCc1ccccc1 (stereo not shown) [Compound 8, 5-Ethyl-3-hydroxy-1-phenethyl-4-(4-(trifluoromethyl)phenyl)-1,5-dihydro-2H-pyrrol-2-one] | > 128 | 23 | 46 |  |  | 
9 | O=C1C(O)=C(c2ccc(C(F)(F)F)cc2)CN1c1ccccc1 [Compound 9, 3-Hydroxy-1-phenyl-4-(4-(trifluoromethyl)phenyl)-1,5-dihydro-2H-pyrrol-2-one] | > 128 | 26 | 8 |  |  | 
10 | CC(C)C1C(c2ccc(C(F)(F)F)cc2)=C(O)C(=O)N1c1ccccc1 (stereo not shown) [Compound 10, 3-Hydroxy-5-isopropyl-1-phenyl-4-(4-(trifluoromethyl)phenyl)-1,5-dihydro-2H-pyrrol-2-one] | > 128 | -5 | 3 |  |  | 
11 | CCCCCN1C(=O)C(O)=C(c2ccc(C(F)(F)F)cc2)C1CC (stereo not shown) [Compound 11, 5-Ethyl-3-hydroxy-1-pentyl-4-(4-(trifluoromethyl)phenyl)-1,5-dihydro-2H-pyrrol-2-one] | 16 (≈ 46.9 µM) | 58 | 63 |  |  | 
12 | CCC1C(c2ccc(C(F)(F)F)cc2)=C(O)C(=O)N1CCC(C)C (stereo not shown) [Compound 14, 5-Ethyl-3-hydroxy-1-isopentyl-4-(4-(trifluoromethyl)phenyl)-1,5-dihydro-2H-pyrrol-2-one] | > 128 | 47 | 43 |  |  | 
13 | CCC1C(c2ccc(C(F)(F)F)cc2)=C(O)C(=O)N1Cc1ccc(OC)cc1OC (stereo not shown) [Compound 15] | > 128 | 63 | 57 |  |  | 
14 | Cc1onc(-c2ccccc2)c1C(=O)N[C@@H]1C(=O)N2[C@@H]1SC(C)(C)[C@@H]2C(=O)O [Oxacillin, oxacillin sodium monohydrate, reference compound] |  |  |  | 0.5 | 2048 | 
15 | CN[C@H](CC(C)C)C(=O)N[C@H]1C(=O)N[C@@H](CC(N)=O)C(=O)N[C@H]2C(=O)N[C@H]3C(=O)N[C@H](C(=O)N[C@H](C(=O)O)c4cc(O)cc(O)c4-c4cc3ccc4O)[C@H](O)c3ccc(c(Cl)c3)Oc3cc2cc(c3O[C@@H]2O[C@H](CO)[C@@H](O)[C@H](O)[C@H]2O[C@H]2C[C@](C)(N)[C@H](O)[C@H](C)O2)Oc2ccc(cc2Cl)[C@H]1O [Vancomycin, vancomycin hydrochloride, reference compound] |  |  |  |  | 2048 | 0.5
